Patent US4340543A, “Sulfonium compounds” (Taiho Pharmaceutical Company Limited, priority 1980, dated 1982)

How the values were obtained:
[1] = test system: transplantable fibrosarcoma induced by 3-methylcholanthrene; test: Antitumor activity on a 3-methylcholanthrene-induced transplantable tumor (tumor weight, i.v.); format: in vivo, male C57BL/6 mice; details: every other day 5 times, day 21
Method: (3) Antitumor activity on a 3-methylcholanthrene-induced transplantable tumor.
Ten male C57BL/6 mice in each group weighing 20-25 g were subcutaneously inoculated with 5×10^4 or 1×10^5 cells of transplantable fibrosarcoma, which was induced in C57BL/6 strain by 3-methylcholanthrene and maintained syngenetically in ascites form. A solution of the compound in physiological saline was injected intravenously at the dose shown in Table 6 below every other day 5 times, starting with the next day of the tumor inoculation. Twenty-one days after the tumor inoculation, mice were sacrificed and tumors were weighed.

[2] = Acute toxicity test (up-down method, i.v.); details: mouse, in vivo, iv, male ddy mice
Method: Male ddy mice weighing 20 g were used. A solution of the compound in physiological saline was injected intravenously. The dose lethal to 50% of mice was determined by the up-down method.

[3] = test system: Meth-A cells; test: Antitumor activity on a syngenic Meth-A tumor (tumor weight, i.v.); format: in vivo, male BALB/C mice; details: 7 consecutive days, day 17
Method: (1) Antitumor activity on a syngenic Meth-A tumor.
Ten male BALB/C mice in each group, weighing 25-30 g, were subcutaneously inoculated with 2×10^4 Meth-A cells. A solution of the compound in physiological saline was injected intravenously at the dose shown in Table 4 below once a day for consecutive 7 days starting with the next day of the tumor inoculation. Seventeen days after the tumor inoculation, mice were sacrificed, and tumors were weighed.
Growth inhibition was assessed, tumor weight in the treated mice divided by tumor weight in the control mice.

[4] = test system: sarcoma 180 cells; test: Antitumor activity on sarcoma 180 (tumor weight, i.v.); format: in vivo, male ICR mice; details: 10 consecutive days, day 17
Method: (2) antitumor activity on sarcoma 180
Ten male ICR mice in each group, weighing 30-35 g, were subcutaneously inoculated with 5×10^5 sarcoma 180 cells. A solution of the compound in physiological saline was injected intravenously at the dose shown in Table 5 below once a day for 10 consecutive days starting with the next day of the tumor inoculation. Seventeen days after the tumor inoculation, mice were sacrificed, and tumors were weighed.

[5] = test system: spleen hemolytic plaque forming cells; test: Effect on humoral response (hemolytic plaque forming cells, sheep red blood cells, i.p.); format: in vivo, male BALB/C mice; details: for Increase (hemolytic plaque forming cells vs saline control) / Cell count/spleen (hemolytic plaque forming cells): day 0 to 4; for Cell count/spleen (hemolytic plaque forming cells): counted day 5
Method: (4) Effect on humoral response
Ten male BALB/C mice in each group, weighing 25-30 g, were intravenously injected with 1×10^7 sheep red blood cells on day 0. A solution of the compound in physiological saline was injected intraperitoneally at the dose shown in Table 7 below from day 0 to day 4.
On day 5, spleen hemolytic plaque forming cells were counted by the technique of Jerne et al (Science, 140, 405, 1963) modified by Cunningham et al (Immunology, 14, 599, 1968).

[6] = test system: delayed hypersensitivity response; test: Effect on a cell-mediated response (picryl chloride delayed hypersensitivity, ear swelling, oral); format: in vivo, male BALB/C mice; details: for Increase relative to control group (ear swelling) / Increase of swelling (× 10^-4): 7 days; for Increase of swelling (× 10^-4): 24 hours after challenge; for effect on the delayed hypersensitivity response (in words): oral, Table 8 doses
Method: (5) Effect on a cell-mediated response
Ten male BALB/C mice in each group, weighing in 20-25 g, were used. Mice were immunized by applying the skin of the clipped abdomen with 0.1 ml of 7% picryl chloride in absolute alcohol on day 0, and challenge was with 0.02 ml of 1% picryl chloride in olive oil applied to the ear on day 7. The ear was measured again 24 hours later by a dial thickness gauge. A solution of the compound in water was orally administered at the dose shown in Table 8 below daily for seven consecutive days starting with day 1.

[7] = 3 mg/kg/day i.v., cell count 1 × 10^5

CCCC[S+](C)CC1CCCO1 (centres unmarked) [Compound 12]
Inhibition (fibrosarcoma growth) [1, 7]: 44.3% | LD50 [2]: 90 mg/kg

C[S+](C)CCCC1CCCO1 (centres unmarked) [Compound 46]
Inhibition (Meth-A tumor growth) ([3]; 0.2 mg/kg/day i.v.): 58.1% | LD50 [2]: 13.2 mg/kg

C[S+](C)CC1CCCO1 (centres unmarked) [Compound 1, methylene(tetrahydro-2-furanyl)dimethylsulfonium p-toluenesulfonate]
Inhibition (Meth-A tumor growth) ([3]; 0.8 mg/kg/day i.v.): 39.9% | Inhibition (Meth-A tumor growth) ([3]; 4.0 mg/kg/day i.v.): 63.9% | Inhibition (sarcoma 180 growth) ([4]; 0.8 mg/kg/day i.v.): 66.4% | Inhibition (fibrosarcoma growth) ([1]; 10 mg/kg/day i.v., cell count 5 × 10^4): 71.5% | Increase (hemolytic plaque forming cells vs saline control) ([5]; 2.5 mg/kg/day i.p.): 52.6% | Cell count/spleen (hemolytic plaque forming cells) ([5]; 2.5 mg/kg/day i.p.): 322 ± 75.2 | Increase (hemolytic plaque forming cells vs saline control) ([5]; 10 mg/kg/day i.p.): 35.1% | Cell count/spleen (hemolytic plaque forming cells) ([5]; 10 mg/kg/day i.p.): 285 ± 113.5 | Increase (hemolytic plaque forming cells vs saline control) ([5]; 40 mg/kg/day i.p.): 85.8% | Cell count/spleen (hemolytic plaque forming cells) ([5]; 40 mg/kg/day i.p.): 392 ± 91.4 | increase in the number of hemolytic plaque forming cells (in words) ([5]; at the doses of 2.5 mg/kg and 40 mg/kg, i.p.): significant increases | Increase relative to control group (ear swelling) ([6]; 20 mg/kg/day oral): -3.4% | Increase of swelling (× 10^-4) ([6]; 20 mg/kg/day oral): 34.2 ± 6.0 × 10^-4 | Increase relative to control group (ear swelling) ([6]; 100 mg/kg/day oral): 43.5% | Increase of swelling (× 10^-4) ([6]; 100 mg/kg/day oral): 50.8 ± 13.4 × 10^-4 | Increase relative to control group (ear swelling) ([6]; 500 mg/kg/day oral): 11.0% | Increase of swelling (× 10^-4) ([6]; 500 mg/kg/day oral): 39.3 ± 9.8 × 10^-4 | effect on the delayed hypersensitivity response (in words) [6]: augment the delayed hypersensitivity response | LD50 [2]: 130 mg/kg

C[S+](CCOC(=O)c1ccccc1)CC1CCCO1 (centres unmarked) [Compound 27]
Inhibition (sarcoma 180 growth) ([4]; 0.4 mg/kg/day i.v.): 75.7% | LD50 [2]: 94 mg/kg

C[S+](C)CC1CCCCO1 (centres unmarked) [Compound 50, methylene(tetrahydro-2-pyranyl)dimethylsulfonium p-toluenesulfonate]
Inhibition (sarcoma 180 growth) ([4]; 3.0 mg/kg/day i.v.): 73.3% | LD50 [2]: 135 mg/kg

C[S+](C)CCC1CCCCO1 (centres unmarked) [Compound 58]
Inhibition (Meth-A tumor growth) ([3]; 2.0 mg/kg/day i.v.): 49.2% | LD50 [2]: 80 mg/kg

C[S+](C)CCC1CCCO1 (centres unmarked) [Compound 29, ethylene(tetrahydro-2-furanyl)dimethylsulfonium p-toluenesulfonate]
Inhibition (Meth-A tumor growth) ([3]; 0.4 mg/kg/day i.v.): 60.7% | Inhibition (Meth-A tumor growth) ([3]; 2.0 mg/kg/day i.v.): 69.8% | Inhibition (Meth-A tumor growth) ([3]; 10.0 mg/kg/day i.v.): 39.6% | Inhibition (fibrosarcoma growth) [1, 7]: 66.7% | Increase relative to control group (ear swelling) ([6]; 20 mg/kg/day oral): 26.0% | Increase of swelling (× 10^-4) ([6]; 20 mg/kg/day oral): 44.8 ± 9.5 × 10^-4 | Increase relative to control group (ear swelling) ([6]; 100 mg/kg/day oral): 35.3% | Increase of swelling (× 10^-4) ([6]; 100 mg/kg/day oral): 47.9 ± 13.2 × 10^-4 | Increase relative to control group (ear swelling) ([6]; 500 mg/kg/day oral): -11.6% | Increase of swelling (× 10^-4) ([6]; 500 mg/kg/day oral): 31.3 ± 13.5 × 10^-4 | effect on the delayed hypersensitivity response (in words) [6]: augment the delayed hypersensitivity response | LD50 [2]: 131 mg/kg
